From patent US20200369728A1, “PEPTIDOMIMETIC MACROCYCLES AND USES THEREOF” (Aileron Therapeutics, Inc., priority 2015, published 2020)
Bridge positions count the residues as written; N and C are the ends. Square brackets hold non-standard residues; d marks the D form. Peptide text beside a SMILES is read from it. R8 = C=CCCCCCC[C@@](C)(N)C(=O)O; Cha = N[C@@H](CC1CCCCC1)C(=O)O; Chg = N[C@H](C(=O)O)C1CCCCC1; hLeu = CC(C)CC[C@H](N)C(=O)O; S5 = C=CCCC[C@](C)(N)C(=O)O; Nle = CCCC[C@H](N)C(=O)O; Ac3c = NC1(C(=O)O)CC1

Tested on: SJSA-1 cells
Assay: Cell lysis by peptidomimetic macrocycles (LDH release)
Format: cell-based
Conditions: SJSA-1, 1 h
Method: SJSA-1 cells were plated out one day in advance in clear flat-bottom plates (Costar, catalog number 353072) at 7500 cells/well with 100 ul/well of growth media, leaving row H columns 10-12 empty for media alone. On the day of the assay, media was exchanged with RPMI 1% FBS media, 90 uL of media per well.
10 mM stock solutions of the peptidomimetic macrocycles were prepared in 100% DMSO. Peptidomimetic macrocycles were then diluted serially in 100% DMSO, and then further diluted 20-fold in sterile water to prepare working stock solutions in 5% DMSO/water of each peptidomimetic macrocycle at concentrations ranging from 500 μM to 62.5 μM.
10 μL of each compound was added to the 90 uL of SJSA-1 cells to yield final concentrations of 50 μM to 6.25 μM in 0.5% DMSO-containing media. The negative control (non-lytic) sample was 0.5% DMSO alone and positive control (lytic) samples include 10 μM Melittin and 1% Triton X-100.
Cell plates were incubated for 1 hour at 37° C. After the 1 hour incubation, the morphology of the cells is examined by microscope and then the plates were centrifuged at 1200 rpm for 5 minutes at room temperature. 40 μL of supernatant for each peptidomimetic macrocycle and control sample is transferred to clear assay plates. LDH release is measured using the LDH cytotoxicity assay kit from Caymen, catalog #1000882.

SMILES | 6.25 μM % Lysed cells (1 h LDH) [%] | 25 μM % Lysed cells (1 h LDH) [%] | 50 μM % Lysed cells (1 h LDH) [%]
CC(C)CC[C@@H]1NC(=O)[C@H](CCC(N)=O)NC(=O)[C@H](C)NC(=O)[C@H](Cc2c[nH]c3ccccc23)NC(=O)[C@H](Cc2ccc(O)cc2)NC(=O)[C@H](CCC(=O)O)NC(=O)[C@](C)(NC(=O)[C@H](Cc2ccccc2)NC(=O)[C@@H](NC(=O)[C@H](CC(C)C)NC(=O)CN(C)C)[C@@H](C)O)CCCCCCC=CCCC[C@@](C)(C(=O)N[C@@H](CO)C(=O)N[C@@H](C)C(=O)N[C@@H](C)C(N)=O)NC1=O [compound 279] | 6 | 5 | 6
CC[C@H](C)[C@H](NC(=O)[C@H](C)NC(=O)[C@H](C)NC(=O)[C@]1(C)CCCC=CCCCCCC[C@@](C)(NC(=O)[C@H](Cc2ccccc2)NC(=O)[C@@H](NC(=O)[C@H](CC(C)C)NC(C)=O)[C@@H](C)O)C(=O)N[C@@H](C)C(=O)N[C@@H](Cc2ccc(O)cc2)C(=O)N[C@@H](Cc2c[nH]c3ccccc23)C(=O)N[C@@H](C)C(=O)N[C@@H](CCC(N)=O)C(=O)N[C@@H](CC(C)C)C(=O)N1)C(=O)N[C@H](CC(C)C)C(N)=O (single isomer, unassigned) [compound 82] | 0 | 0 | 1
CC(=O)N[C@@H](Cc1ccccc1)C(=O)N[C@]1(C)CCCCCCC=CCCC[C@@](C)(C(=O)N[C@@H](C)C(=O)N[C@@H](C)C(=O)N[C@@H](Cc2ccccc2)C(N)=O)NC(=O)[C@H](CC(C)C)NC(=O)C2(CC2)NC(=O)[C@H](CCC(=O)O)NC(=O)[C@H](Cc2c[nH]c3ccccc23)NC(=O)[C@H](Cc2ccc(O)cc2)NC(=O)[C@H](C)NC1=O [compound 18] (Ac-F[R8]AYWE[Ac3c]L[S5]AAF-NH2; staple 2-9) | 0 | 2 | 4
CC(=O)N[C@@H](Cc1ccccc1)C(=O)N[C@]1(C)CCCCCCC=CCCC[C@@](C)(C(=O)N[C@@H](Cc2c[nH]cn2)C(=O)N[C@@H](CCCNC(=N)N)C(=O)N[C@@H](Cc2ccccc2)C(=O)N[C@@H](CC2CCCCC2)C(N)=O)NC(=O)[C@H](CC(C)C)NC(=O)[C@H](CCC(N)=O)NC(=O)[C@H](Cc2c[nH]cn2)NC(=O)[C@H](Cc2c[nH]c3ccccc23)NC(=O)[C@H](Cc2c[nH]cn2)NC(=O)[C@H](Cc2c[nH]cn2)NC1=O [compound 55] (Ac-F[R8]HHWHQL[S5]HRF[Cha]-NH2; staple 2-9) | 1 | 9 | 13
CC(=O)N[C@@H](CC(C)C)C(=O)N[C@H](C(=O)N[C@@H](Cc1ccccc1)C(=O)N[C@]1(C)CCCCCCC=CCCC[C@@](C)(C(=O)N[C@@H](C)C(=O)N[C@@H](C)C(=O)NC(C)(C)C(=O)N[C@@H](C)C(N)=O)NC(=O)[C@H](CC(C)C)NC(=O)[C@H](CCC(N)=O)NC(=O)[C@H](C)NC(=O)[C@H](Cc2c[nH]c3ccccc23)NC(=O)[C@H](Cc2ccc(O)cc2)NC(=O)[C@H](C)NC1=O)[C@@H](C)O (single isomer, unassigned) [compound 232] | 6 | 5 | 5
CC[C@H](C)[C@H](NC(=O)[C@H](C)NC(=O)[C@H](C)NC(=O)[C@]1(C)CCCC=CCCCCCC[C@@](C)(NC(=O)[C@H](Cc2ccccc2)NC(=O)[C@@H](NC(=O)[C@H](CC(C)C)NC(C)=O)[C@@H](C)O)C(=O)N[C@@H](CCC(=O)O)C(=O)N[C@@H](Cc2ccc(C(=O)O)cc2)C(=O)N[C@@H](Cc2c[nH]c3cc(Cl)ccc23)C(=O)N[C@@H](C)C(=O)N[C@@H](CCC(N)=O)C(=O)N[C@@H](CC2CCC2)C(=O)N1)C(=O)N[C@H](C)C(N)=O (single isomer, unassigned) [compound 336] | 0 | 0 | 0
CC(=O)N[C@@H](CC(C)C)C(=O)N[C@H](C(=O)N[C@@H](Cc1ccccc1)C(=O)N[C@]1(C)CCCCCCC=CCCC[C@@](C)(C(=O)N[C@@H](CO)C(=O)N[C@@H](C)C(=O)N[C@H](C(N)=O)C2CCCCC2)NC(=O)[C@H](CC(C)C)NC(=O)[C@H](CCC(N)=O)NC(=O)[C@H](C)NC(=O)[C@H](Cc2c[nH]c3ccccc23)NC(=O)[C@H](Cc2ccc(O)cc2)NC(=O)[C@H](C)NC1=O)[C@@H](C)O [compound 9] (Ac-LTF[R8]AYWAQL[S5]SA[Chg]-NH2; staple 4-11) | −3 | 0 | 2
CC(C)CC[C@@H]1NC(=O)[C@H](CCC(N)=O)NC(=O)[C@H](C)NC(=O)[C@H](Cc2c[nH]c3ccccc23)NC(=O)[C@H](Cc2ccc(O)cc2)NC(=O)[C@H](CCC(=O)O)NC(=O)[C@](C)(NC(=O)[C@H](Cc2ccccc2)NC(=O)[C@@H](NC(=O)[C@H](CC(C)C)NC(=O)C(C)(C)C)[C@@H](C)O)CCCCCCC=CCCC[C@@](C)(C(=O)N[C@@H](CO)C(=O)N[C@@H](C)C(=O)N[C@@H](C)C(N)=O)NC1=O [compound 284] | 5 | 5 | 6
CC(=O)N[C@@H](Cc1c[nH]cn1)C(=O)N[C@@H](CC(C)C)C(=O)N[C@H](C(=O)N[C@@H](Cc1ccccc1)C(=O)N[C@]1(C)CCCCCCC=CCCC[C@@](C)(C(=O)N[C@@H](C)C(=O)N[C@@H](C)C(=O)N[C@@H](CCC(C)C)C(=O)N[C@@H](C)C(N)=O)NC(=O)[C@H](CC(C)C)NC(=O)[C@H](CCC(N)=O)NC(=O)[C@H](Cc2c[nH]cn2)NC(=O)[C@H](Cc2c[nH]c3ccccc23)NC(=O)[C@H](Cc2c[nH]cn2)NC(=O)[C@H](Cc2c[nH]cn2)NC1=O)[C@@H](C)O [compound 32] (Ac-HLTF[R8]HHWHQL[S5]AA[hLeu]A-NH2; staple 5-12) | 0 | 2 | 0
CCCC[C@H](NC(=O)[C@H](C)NC(=O)[C@H](CCC(N)=O)NC(=O)[C@H](Cc1c[nH]cn1)NC(=O)[C@]1(C)CCCC=CCCCCCC[C@@](C)(NC(=O)[C@H](Cc2ccccc2)NC(C)=O)C(=O)N[C@@H](C)C(=O)N[C@@H](Cc2ccc(O)cc2)C(=O)N[C@@H](Cc2c[nH]c3ccccc23)C(=O)N[C@@H](CO)C(=O)N[C@@H](C)C(=O)N[C@@H](CC(C)C)C(=O)N1)C(N)=O [compound 39] (Ac-F[R8]AYWSAL[S5]HQA[Nle]-NH2; staple 2-9) | 0 | 0 | 3
CC[C@H](C)[C@H](NC(=O)[C@H](C)NC(=O)[C@H](C)NC(=O)[C@]1(C)CCCC=CCCCCCC[C@@](C)(NC(=O)[C@H](Cc2ccccc2)NC(=O)[C@@H](NC(=O)[C@H](CC(C)C)NC(C)=O)[C@@H](C)O)C(=O)N[C@@H](C)C(=O)N[C@@H](Cc2ccc(C(=O)O)cc2)C(=O)N[C@@H](Cc2c[nH]c3ccccc23)C(=O)N[C@@H](C)C(=O)N[C@@H](CCC(N)=O)C(=O)N[C@@H](CC(C)C)C(=O)N1)C(=O)N[C@H](C)C(N)=O (single isomer, unassigned) [compound 182] | 0 | 3 | 6
